Reference: patent US20130164747A1, “Predicting Treatment Response in Cancer Subjects” (University of South Florida, priority 2005, published 2013)
Like-named read-outs stand apart in the source and are kept apart here.

Columns and labels:
H23siR1 cells [1] = test: MTS assay, cell line with siRNA-reduced RRM1 expression; type: cell-based
Description: (§1) Reduced expression of RRM1 correlates with increased sensitivity to gemcitabine. Stable, genetically modified cell lines with increased and decreased RRM1 expression and corresponding controls were generated (Gautam et al., Oncogene 22:2135-42, 2003). H23, originating from a lung adenocarcinoma, was used as the parent cell line (Carney et al., Cancer Res 45:2913-23, 1985). H23siR1 was generated by stable transfection of NCI-H23 with a pSUPER-siRRM1 construct. These cells express an siRNA that targets RRM1, thereby causing decreased expression of RRM1. To generate this construct, the pSUPER-GFP/neo vector (OligoEngine, Seattle, Wash.) was digested with BglII and HindIII and the annealed oligonucleotides (5′-GATCCCCgacgctagagcggtettat[…]ataagaccgctctagcgte[…]-3′(SEQ ID NO:1) and 5′-[…]gacgctagagcggtcttatTC TCTTGAAataagaccgctctagcgtcGGG-3′ (SEQ ID NO:2)) were ligated into the vector. The 19 nucleotide RRM1 target sequences are denoted by lower-case letters. The control H23siCt cell line was generated which expressed an siRNA targeting the sequence […] (SEQ ID NO:3). This sequence has no similarity to any known gene. H23-R1 is a stable RRM1 overexpressing cell line, and H23-Ct is its corresponding control. Both were generated by transfection with full-length RRM1 cDNA cloned into the expression plasmid pCMV-Tag2 (Stratagene, La Jolla, Calif.) as previously described (Gautam et al., Oncogene 22:2135-42, 2003). The level of RRM1 expression in these cell lines was assessed by real-time quantitative RT-PCR and Western blot analysis.
(§2) A modified MTT assay (MTS assay, Promega, Madison, Wis.) was used to assess the impact of RRM1 expression on therapeutic efficacy of gemcitabine and platinum-containing agents in vitro. This MTS assay utilized 3-(4,5-dimethylthiazol-2-yl)-5-(3-carboxymethoxyphenyl)-2-(4-sulfophenyl)-2H-tetrazolium as the reagent. The assay was performed by seeding 4,000 cells/well in 96 well flat-bottom plates. H23-Ct, H23-R1, H23siR1, H23siCt cells were continuously exposed to drug for 72 or 96 hr. After 3 hr of incubation at 37° C., the absorbance was measured at 490 nm in a microplate reader (Benchmark Plus, Bio-Rad, Hercules, Calif.). All experiments were repeated three times.
(§3) The MTS assay was performed by seeding 4,000 cells/well in 96 well flat-bottom plates. H23-Ct, H23-R1, H23 siR1, H23siCt cells were continuously exposed to drug for 72 or 96 h. The assay was performed with 3-(4,5-dimethylthiazol-2-yl)-5-(3-carboxymethoxyphenyl)-2-(4-sulfophenyl)-2H-tetrazolium reagent. After 3 h of incubation at 37° C., the absorbance was measured at 490 nm. All experiments were repeated three times.

H23-R1 cells [2] = test: Drug-induced apoptosis, annexin V labeling by flow cytometry; type: cell-based
Protocol: (§4) To determine drug-induced in vitro apoptosis, 3×10^5 cells/well were seeded in six-well plates and allowed to attach overnight. Chemotherapeutic agents were added to the culture at the indicated concentrations. After 2, 4, and 6 hours of treatment annexin V labeling of the cells was performed as recommended by the manufacturer (BD Pharmingen, San Diego, Calif.). The percentage of labeled cells was determined by flow cytometry (FACScalibur, Becton Dickinson, Franklin Lakes, N.J.). […] The proportion of cells labeled after 6 h of treatment with 250 nM gemcitabine was 6.6-6.9% in control cell lines, 2.6% in H23-R1, and 15.2% in H23siR1. Cisplatin exposure for 6 h at 200 nM yielded 14.5-15.1% apoptotic cells in H23-Ct and H23siCt, 5.5% apoptotic cells in H23-R1, and 19.0% apoptotic cells in H23siR1.
(§5) Induction of apoptosis as a result of drug exposure was determined with 3×10^5 cells/well in six-well plates after 2, 4 and 6 hours of treatment. Cells were then labeled with annexin V, and labeling was determined by flow cytometry (FACScalibur, Becton Dickinson). After 4 h and 6 h of gemcitabine treatment 2.55% and 5.05% of the H23siCt cells were apoptotic while 5.09% and 15.7% of H23siR1 cells were apoptotic (FIG. 4). Likewise, the proportion of apoptotic cells after exposure to […] was higher in H23siR1 than in control cells. […] The increased apoptosis caused by both drugs in cell lines with reduced RRM1 expression was significant (p<0.05) as compared to control cells.

H23siR1 cells [3] = test: as above; type: cell-based
Protocol: as §4, §5

RRM1 expression = test: Summary of observations: response by RRM1 expression level
H23-R1 cells [4] = test: MTS assay, RRM1-overexpressing cell line; type: cell-based
Description: as §1, §2, §3

H23-Ct cells = test: MTS assay, control cell line of H23-R1; type: cell-based
Description: as §1, §2, §3

H23 (NCI-H23) cells = test: MTS assay (modified MTT), parent cell line; type: cell-based
Protocol: as §2, §3

H23siCt cells [5] = test: MTS assay, siRNA control cell line; type: cell-based
Description: as §1, §2, §3

ERCC1 expression = test: Summary of observations: response by ERCC1 expression level
[6] = test system: control cell lines H23-Ct and H23siCt; test: Drug-induced apoptosis, annexin V labeling by flow cytometry; type: cell-based; settings: 6 h
Protocol: as §4

H23siCt cells [7] = test: as above; type: cell-based
Protocol: as §5

[8] = H23siR1, RRM1 5-fold down, continuous exposure 72 or 96 hr, read-out: IC50 +/− SD
[9] = H23-R1, RRM1 3-fold up, continuous exposure 72 or 96 hr, read-out: IC50 +/− SD
[10] = RRM1 no change, continuous exposure 72 or 96 hr, read-out: IC50 +/− SD
[11] = Homo sapiens, H23 (NCI-H23) parent cell line, continuous exposure 72 or 96 hr, read-out: IC50 +/− SD
[12] = continuous exposure 72 or 96 h, read-out: IC50
[13] = H23 (NCI-H23) parent cell line, continuous exposure 72 or 96 hr, read-out: IC50 +/− SD

SMILES | IC50 (H23siR1 cells [1]; [8]) | Response at RRM1 high expression (RRM1 expression) | Response at RRM1 low expression (RRM1 expression) | Response at RRM1 medium expression (RRM1 expression) | IC50 (H23-R1 cells [4]; [9]) | IC50 (H23-Ct cells; [10]) | IC50 (H23 (NCI-H23) cells; [11]) | IC50 (H23siCt cells [5]; [10]) | Response at ERCC1 high expression (ERCC1 expression) | Response at ERCC1 low expression (ERCC1 expression) | IC50 (H23 (NCI-H23) cells; [13]) | other results
CC(=O)O[C@@]12CO[C@@H]1C[C@H](O)[C@@]1(C)C(=O)[C@H](O)C3=C(C)[C@@H](OC(=O)[C@H](O)[C@@H](NC(=O)OC(C)(C)C)c4ccccc4)C[C@@](O)([C@@H](OC(=O)c4ccccc4)[C@H]21)C3(C)C [Docetaxel, docetaxel] | 6 nM | Sensitive | Sensitive | Resistant | 9 nM | 700 nM | 1000 nM | 2500 nM | – | – | – | Apoptosis compared with control cells (H23-R1 cells [2]; H23-R1 versus control cells): more apoptosis; Proportion of apoptotic cells compared with control cells (H23siR1 cells [3]; H23siR1 versus control cells): higher
CCC1=C[C@@H]2CN(C1)Cc1c([nH]c3ccccc13)[C@@](C(=O)OC)(c1cc3c(cc1OC)N(C)[C@H]1[C@@](O)(C(=O)OC)[C@H](OC(C)=O)[C@]4(CC)C=CCN5CC[C@]31[C@@H]54)C2 [Vinorelbine, vinorelbine] | – | Sensitive | Sensitive | Resistant | – | – | – | – | – | – | – | IC50 (H23siR1 cells [1]; H23siR1, continuous exposure 72 or 96 h, read-out: IC50): 10 nM; IC50 (H23-R1 cells [4]; H23-R1, continuous exposure 72 or 96 h, read-out: IC50): 400 nM; IC50 (H23-Ct cells; [12]): 20000 nM; IC50 (H23 (NCI-H23) cells; Homo sapiens, NCI-H23, continuous exposure 72 or 96 h, read-out: IC50): 8000 nM; IC50 (H23siCt cells [5]; [12]): 20000 nM
N.N.O=C([O-])C1(C(=O)[O-])CCC1.[Pt+2] [Carboplatin, carboplatin] | 10000 nM | Minimal | Minimal | – | – | 15000 nM | – | 13000 nM | resistant | sensitive | 12000 nM | –
N.N.[Cl][Pt][Cl] [Cisplatin, cisplatin] | 950 nM | Minimal | Minimal | – | 1500 nM | 1250 nM | – | 1000 nM | resistant | sensitive | 1200 nM | Apoptotic cells (H23-R1 cells [2]; H23-R1, cisplatin 200 nM, 6 h): 5.5%; Apoptotic cells (H23siR1 cells [3]; H23siR1, cisplatin 200 nM, 6 h): 19.0%; Apoptotic cells ([6]; H23-Ct and H23siCt, cisplatin 200 nM): 14.5-15.1%
Nc1nc2[nH]cc(CCc3ccc(C(=O)N[C@@H](CCC(=O)O)C(=O)O)cc3)c2c(=O)[nH]1 [Pemetrexed, pemetrexed] | – | resistant | Sensitive | – | – | – | – | – | – | – | – | –
Nc1ccn([C@@H]2O[C@H](CO)[C@@H](O)C2(F)F)c(=O)n1 [Gemcitabine, gemcitabine] | 100 nM | resistant | Sensitive | – | 6000 nM | 750 nM | 500 nM | 1020 nM | – | – | – | IC50 of H23siR1 lower than IC50 of H23siCt (more sensitive than control cell line) (H23siR1 cells [1]; H23siR1 versus H23siCt): 10 fold; Proportion of cells labeled with annexin V (H23-R1 cells [2]; H23-R1, 250 nM gemcitabine, 6 h): 2.6%; Proportion of cells labeled with annexin V (H23siR1 cells [3]; H23siR1, 250 nM gemcitabine, 6 h): 15.2%; Apoptotic cells (H23siR1 cells [3]; H23siR1, 4 h of treatment (Example 4, FIG. 4)): 5.09%; Apoptotic cells (H23siR1 cells [3]; H23siR1, 6 h of treatment (Example 4, FIG. 4)): 15.7%; IC50 of H23-R1 higher than IC50 of H23-Ct (more resistant than control cell line) (H23-R1 cells [4]; H23-R1 versus H23-Ct): 8 fold; Proportion of cells labeled with annexin V ([6]; control cell lines, 250 nM gemcitabine): 6.6-6.9%; Apoptotic cells (H23siCt cells [7]; 4 h of treatment (Example 4, FIG. 4)): 2.55%; Apoptotic cells (H23siCt cells [7]; 6 h of treatment (Example 4, FIG. 4)): 5.05%
